Measurements: ChEMBL document CHEMBL4507279, “Data for DCP probe BI-9627” (2021)

Key:
[1] = biological target: Calcium/calmodulin-dependent protein kinase type II subunit gamma (Homo sapiens) (UniProt Q13555); conditions: Compound concentration 1000.0 nM
[2] = biological target: MAP kinase-interacting serine/threonine-protein kinase 1 (Homo sapiens) (UniProt Q9BUB5); conditions: Compound concentration 1000.0 nM
[3] = biological target: Casein kinase I isoform gamma-3 (Homo sapiens) (UniProt Q9Y6M4); conditions: Compound concentration 1000.0 nM
[4] = test system: eIF-2-alpha kinase GCN2 (Homo sapiens), Q9P2K8 [S808G]; conditions: Compound concentration 1000.0 nM
[5] = biological target: Delta-type opioid receptor (Homo sapiens) (UniProt P41143); conditions: Compound concentration 10.0 uM
[6] = test system: Receptor-type tyrosine-protein kinase FLT3 (Homo sapiens), P36888 [R834Q]; conditions: Compound concentration 1000.0 nM
[7] = biological target: GABA-A receptor; anion channel (Rattus norvegicus) (UniProt O09028+P15431+P18506+P18508+P19969+P20236+P23574+P23576+P28471+P28473+P30191+P62813+P63079+P63138+Q91ZM7+Q9ES14); conditions: Compound concentration 10.0 uM
[8] = biological target: Serine/threonine-protein kinase 32A (Homo sapiens) (UniProt Q8WU08); conditions: Compound concentration 1000.0 nM
[9] = biological target: G protein-coupled receptor kinase 3 (Homo sapiens) (UniProt P35626); conditions: Compound concentration 1000.0 nM
[10] = biological target: Cyclin-dependent kinase 19 (Homo sapiens) (UniProt Q9BWU1); conditions: Compound concentration 1000.0 nM
[11] = biological target: BDNF/NT-3 growth factors receptor (Homo sapiens) (UniProt Q16620); conditions: Compound concentration 1000.0 nM
[12] = biological target: Mitogen-activated protein kinase 15 (Homo sapiens) (UniProt Q8TD08); conditions: Compound concentration 1000.0 nM
[13] = biological target: Dual specificity mitogen-activated protein kinase kinase 2 (Homo sapiens) (UniProt P36507); conditions: Compound concentration 1000.0 nM
[14] = biological target: Dual specificity mitogen-activated protein kinase kinase 3 (Homo sapiens) (UniProt P46734); conditions: Compound concentration 1000.0 nM
[15] = test system: Phosphatidylinositol 4,5-bisphosphate 3-kinase catalytic subunit alpha isoform (Homo sapiens), P42336 [Q546K]; conditions: Compound concentration 1000.0 nM
[16] = biological target: T1, Alpha-1D adrenergic receptor (Homo sapiens) (UniProt P25100); conditions: Compound concentration 10.0 uM
T1 sequence (whole entry): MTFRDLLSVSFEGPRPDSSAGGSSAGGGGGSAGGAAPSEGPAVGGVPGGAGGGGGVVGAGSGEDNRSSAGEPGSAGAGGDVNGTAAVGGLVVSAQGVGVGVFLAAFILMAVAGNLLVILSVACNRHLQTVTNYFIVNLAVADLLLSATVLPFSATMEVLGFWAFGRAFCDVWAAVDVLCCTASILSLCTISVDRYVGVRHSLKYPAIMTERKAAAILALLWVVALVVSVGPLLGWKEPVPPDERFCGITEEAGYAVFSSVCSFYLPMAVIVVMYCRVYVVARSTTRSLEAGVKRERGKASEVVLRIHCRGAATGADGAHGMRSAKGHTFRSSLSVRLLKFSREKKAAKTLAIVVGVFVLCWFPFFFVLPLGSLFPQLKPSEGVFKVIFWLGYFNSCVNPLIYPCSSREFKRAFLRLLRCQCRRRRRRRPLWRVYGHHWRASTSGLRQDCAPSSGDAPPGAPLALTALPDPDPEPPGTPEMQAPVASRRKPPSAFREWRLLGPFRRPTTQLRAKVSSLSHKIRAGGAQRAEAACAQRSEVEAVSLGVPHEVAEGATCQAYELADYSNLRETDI

[17] = biological target: Ephrin type-A receptor 8 (Homo sapiens) (UniProt P29322); conditions: Compound concentration 1000.0 nM
[18] = biological target: LIM domain kinase 2 (Homo sapiens) (UniProt P53671); conditions: Compound concentration 1000.0 nM
[19] = biological target: Serine/threonine-protein kinase Nek10 (Homo sapiens) (UniProt Q6ZWH5); conditions: Compound concentration 1000.0 nM
[20] = biological target: Myosin light chain kinase, smooth muscle (Homo sapiens) (UniProt Q15746); conditions: Compound concentration 1000.0 nM
[21] = biological target: Maternal embryonic leucine zipper kinase (Homo sapiens) (UniProt Q14680); conditions: Compound concentration 1000.0 nM
[22] = biological target: Cyclin-dependent kinase 4 (Homo sapiens) (UniProt P11802); conditions: Compound concentration 1000.0 nM
[23] = biological target: Serine/threonine-protein kinase haspin (Homo sapiens) (UniProt Q8TF76); conditions: Compound concentration 1000.0 nM
[24] = biological target: Ribosomal protein S6 kinase beta-1 (Homo sapiens) (UniProt P23443); conditions: Compound concentration 1000.0 nM
[25] = biological target: T2, D(4) dopamine receptor (Homo sapiens) (UniProt P21917); conditions: Compound concentration 10.0 uM
T2 sequence (whole entry): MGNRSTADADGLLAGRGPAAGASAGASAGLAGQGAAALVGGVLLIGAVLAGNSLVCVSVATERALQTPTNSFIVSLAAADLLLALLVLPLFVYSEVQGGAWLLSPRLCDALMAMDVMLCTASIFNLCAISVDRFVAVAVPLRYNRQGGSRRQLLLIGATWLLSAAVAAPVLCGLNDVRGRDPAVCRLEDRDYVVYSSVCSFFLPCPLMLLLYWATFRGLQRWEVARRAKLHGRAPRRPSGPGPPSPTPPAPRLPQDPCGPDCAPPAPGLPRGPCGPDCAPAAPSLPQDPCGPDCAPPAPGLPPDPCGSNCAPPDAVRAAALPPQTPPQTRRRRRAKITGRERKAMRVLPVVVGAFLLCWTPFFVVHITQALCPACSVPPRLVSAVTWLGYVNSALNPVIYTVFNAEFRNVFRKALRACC

[26] = biological target: Phosphatidylinositol 3-kinase catalytic subunit type 3 (Homo sapiens) (UniProt Q8NEB9); conditions: Compound concentration 1000.0 nM
[27] = biological target: Interferon-induced, double-stranded RNA-activated protein kinase (Homo sapiens) (UniProt P19525); conditions: Compound concentration 1000.0 nM
[28] = biological target: Mitogen-activated protein kinase 14 (Homo sapiens) (UniProt Q16539); conditions: Compound concentration 1000.0 nM
[29] = biological target: Serine/threonine-protein kinase Chk2 (Homo sapiens) (UniProt O96017); conditions: Compound concentration 1000.0 nM
[30] = biological target: Serine/threonine-protein kinase PAK 2 (Homo sapiens) (UniProt Q13177); conditions: Compound concentration 1000.0 nM
Serine/threonine-protein kinase PAK 2 (Homo sapiens), sequence (Q13177 whole entry): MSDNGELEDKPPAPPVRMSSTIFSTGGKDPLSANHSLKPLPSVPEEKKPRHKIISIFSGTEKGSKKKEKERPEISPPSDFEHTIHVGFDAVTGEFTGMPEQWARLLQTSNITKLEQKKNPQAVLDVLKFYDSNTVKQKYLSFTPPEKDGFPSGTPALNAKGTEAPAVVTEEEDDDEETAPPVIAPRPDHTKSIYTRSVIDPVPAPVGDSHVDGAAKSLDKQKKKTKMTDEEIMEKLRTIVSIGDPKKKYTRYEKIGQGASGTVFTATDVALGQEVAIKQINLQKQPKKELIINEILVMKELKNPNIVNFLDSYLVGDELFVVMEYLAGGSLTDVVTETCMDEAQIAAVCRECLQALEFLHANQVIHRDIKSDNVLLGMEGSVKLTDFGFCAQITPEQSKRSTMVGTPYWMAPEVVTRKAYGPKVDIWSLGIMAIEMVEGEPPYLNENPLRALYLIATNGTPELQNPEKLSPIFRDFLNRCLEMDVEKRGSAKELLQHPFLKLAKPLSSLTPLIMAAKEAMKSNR

Dual specificity mitogen-activated protein kinase kinase 3 (Homo sapiens), sequence (P46734 whole entry, canonical isoform): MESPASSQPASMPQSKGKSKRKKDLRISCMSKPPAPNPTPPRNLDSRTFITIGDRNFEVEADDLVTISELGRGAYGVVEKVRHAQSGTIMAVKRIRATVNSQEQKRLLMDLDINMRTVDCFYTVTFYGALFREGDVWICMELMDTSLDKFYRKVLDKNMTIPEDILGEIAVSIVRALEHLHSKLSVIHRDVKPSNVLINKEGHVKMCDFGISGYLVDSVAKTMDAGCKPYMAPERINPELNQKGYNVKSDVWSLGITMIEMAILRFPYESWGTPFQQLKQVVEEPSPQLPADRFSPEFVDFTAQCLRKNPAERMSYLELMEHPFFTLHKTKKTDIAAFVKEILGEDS
Serine/threonine-protein kinase 32A (Homo sapiens), sequence (Q8WU08 whole entry): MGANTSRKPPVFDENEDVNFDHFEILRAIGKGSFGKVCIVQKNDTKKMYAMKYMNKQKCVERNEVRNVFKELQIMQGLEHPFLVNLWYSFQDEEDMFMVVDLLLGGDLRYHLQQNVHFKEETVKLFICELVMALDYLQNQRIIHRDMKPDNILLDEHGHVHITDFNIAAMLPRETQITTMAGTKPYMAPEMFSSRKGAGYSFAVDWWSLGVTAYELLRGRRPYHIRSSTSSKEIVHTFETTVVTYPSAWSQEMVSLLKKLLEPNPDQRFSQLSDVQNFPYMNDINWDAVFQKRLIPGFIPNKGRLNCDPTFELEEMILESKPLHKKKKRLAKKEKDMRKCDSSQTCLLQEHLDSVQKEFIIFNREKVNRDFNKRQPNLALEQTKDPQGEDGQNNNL
Ephrin type-A receptor 8 (Homo sapiens), sequence (P29322 whole entry, the tested form may be a part): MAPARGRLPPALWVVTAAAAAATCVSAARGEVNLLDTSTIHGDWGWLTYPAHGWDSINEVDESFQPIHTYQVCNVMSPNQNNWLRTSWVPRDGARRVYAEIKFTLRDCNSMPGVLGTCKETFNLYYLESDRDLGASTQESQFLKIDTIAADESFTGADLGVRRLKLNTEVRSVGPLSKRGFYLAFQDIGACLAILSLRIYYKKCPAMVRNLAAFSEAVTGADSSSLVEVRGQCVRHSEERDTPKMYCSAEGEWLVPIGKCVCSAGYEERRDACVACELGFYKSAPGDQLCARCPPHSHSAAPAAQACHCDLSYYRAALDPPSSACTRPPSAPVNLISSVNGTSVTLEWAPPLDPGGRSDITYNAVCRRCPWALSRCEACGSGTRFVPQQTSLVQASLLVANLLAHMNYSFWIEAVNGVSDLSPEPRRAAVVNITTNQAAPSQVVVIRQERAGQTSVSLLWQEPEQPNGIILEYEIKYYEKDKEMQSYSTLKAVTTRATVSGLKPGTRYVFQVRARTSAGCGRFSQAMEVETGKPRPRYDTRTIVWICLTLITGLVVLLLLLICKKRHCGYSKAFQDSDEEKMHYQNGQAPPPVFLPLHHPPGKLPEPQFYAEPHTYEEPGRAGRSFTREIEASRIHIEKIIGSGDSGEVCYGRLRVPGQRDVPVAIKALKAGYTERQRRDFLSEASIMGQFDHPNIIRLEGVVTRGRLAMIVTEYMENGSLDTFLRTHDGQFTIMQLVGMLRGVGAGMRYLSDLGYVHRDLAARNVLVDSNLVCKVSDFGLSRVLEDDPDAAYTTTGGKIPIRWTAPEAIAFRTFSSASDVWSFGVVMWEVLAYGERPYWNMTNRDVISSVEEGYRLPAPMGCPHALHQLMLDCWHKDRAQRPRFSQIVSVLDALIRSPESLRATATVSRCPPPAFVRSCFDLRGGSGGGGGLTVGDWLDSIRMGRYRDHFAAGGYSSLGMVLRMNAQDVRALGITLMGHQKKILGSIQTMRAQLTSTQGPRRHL
LIM domain kinase 2 (Homo sapiens), sequence (P53671 whole entry, looked up, the tested form may be a part): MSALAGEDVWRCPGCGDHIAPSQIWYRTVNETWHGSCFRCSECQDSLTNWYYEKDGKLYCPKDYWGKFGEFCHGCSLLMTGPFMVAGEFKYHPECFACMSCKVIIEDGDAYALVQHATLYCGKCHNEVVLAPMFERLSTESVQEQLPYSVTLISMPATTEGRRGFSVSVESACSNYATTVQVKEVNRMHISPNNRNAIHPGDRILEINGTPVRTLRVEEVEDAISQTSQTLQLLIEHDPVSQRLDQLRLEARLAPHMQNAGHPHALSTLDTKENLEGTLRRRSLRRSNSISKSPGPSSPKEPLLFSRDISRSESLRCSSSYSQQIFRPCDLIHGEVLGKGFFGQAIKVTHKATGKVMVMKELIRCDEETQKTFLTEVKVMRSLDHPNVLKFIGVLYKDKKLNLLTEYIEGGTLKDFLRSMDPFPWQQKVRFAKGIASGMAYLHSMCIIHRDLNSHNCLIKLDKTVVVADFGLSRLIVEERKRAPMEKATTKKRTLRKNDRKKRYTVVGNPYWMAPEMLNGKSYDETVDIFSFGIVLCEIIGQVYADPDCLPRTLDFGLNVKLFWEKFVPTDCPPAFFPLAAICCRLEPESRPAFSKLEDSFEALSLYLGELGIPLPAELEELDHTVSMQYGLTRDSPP
Serine/threonine-protein kinase haspin (Homo sapiens), sequence (Q8TF76 whole entry): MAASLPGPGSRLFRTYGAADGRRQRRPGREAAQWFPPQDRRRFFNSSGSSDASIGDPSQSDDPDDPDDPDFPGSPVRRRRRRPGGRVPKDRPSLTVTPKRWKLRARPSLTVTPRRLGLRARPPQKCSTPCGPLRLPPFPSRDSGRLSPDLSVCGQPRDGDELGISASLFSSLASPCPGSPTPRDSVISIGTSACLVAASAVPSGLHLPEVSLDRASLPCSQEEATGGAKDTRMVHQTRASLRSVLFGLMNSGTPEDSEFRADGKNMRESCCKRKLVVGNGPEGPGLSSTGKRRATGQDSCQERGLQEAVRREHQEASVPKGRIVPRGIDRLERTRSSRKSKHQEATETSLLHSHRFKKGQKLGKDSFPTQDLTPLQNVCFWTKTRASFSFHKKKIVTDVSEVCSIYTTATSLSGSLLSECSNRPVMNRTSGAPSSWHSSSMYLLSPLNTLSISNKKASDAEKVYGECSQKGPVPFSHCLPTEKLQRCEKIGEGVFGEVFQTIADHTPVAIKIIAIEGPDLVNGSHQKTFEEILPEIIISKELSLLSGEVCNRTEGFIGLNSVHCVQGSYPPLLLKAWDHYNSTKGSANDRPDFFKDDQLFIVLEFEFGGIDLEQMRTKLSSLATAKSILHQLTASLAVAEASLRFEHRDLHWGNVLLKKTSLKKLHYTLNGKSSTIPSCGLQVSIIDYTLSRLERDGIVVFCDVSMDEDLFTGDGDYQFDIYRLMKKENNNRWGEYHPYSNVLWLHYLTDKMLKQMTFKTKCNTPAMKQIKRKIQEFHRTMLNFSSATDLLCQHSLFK
BDNF/NT-3 growth factors receptor (Homo sapiens), sequence (Q16620 32-822 limits assumed): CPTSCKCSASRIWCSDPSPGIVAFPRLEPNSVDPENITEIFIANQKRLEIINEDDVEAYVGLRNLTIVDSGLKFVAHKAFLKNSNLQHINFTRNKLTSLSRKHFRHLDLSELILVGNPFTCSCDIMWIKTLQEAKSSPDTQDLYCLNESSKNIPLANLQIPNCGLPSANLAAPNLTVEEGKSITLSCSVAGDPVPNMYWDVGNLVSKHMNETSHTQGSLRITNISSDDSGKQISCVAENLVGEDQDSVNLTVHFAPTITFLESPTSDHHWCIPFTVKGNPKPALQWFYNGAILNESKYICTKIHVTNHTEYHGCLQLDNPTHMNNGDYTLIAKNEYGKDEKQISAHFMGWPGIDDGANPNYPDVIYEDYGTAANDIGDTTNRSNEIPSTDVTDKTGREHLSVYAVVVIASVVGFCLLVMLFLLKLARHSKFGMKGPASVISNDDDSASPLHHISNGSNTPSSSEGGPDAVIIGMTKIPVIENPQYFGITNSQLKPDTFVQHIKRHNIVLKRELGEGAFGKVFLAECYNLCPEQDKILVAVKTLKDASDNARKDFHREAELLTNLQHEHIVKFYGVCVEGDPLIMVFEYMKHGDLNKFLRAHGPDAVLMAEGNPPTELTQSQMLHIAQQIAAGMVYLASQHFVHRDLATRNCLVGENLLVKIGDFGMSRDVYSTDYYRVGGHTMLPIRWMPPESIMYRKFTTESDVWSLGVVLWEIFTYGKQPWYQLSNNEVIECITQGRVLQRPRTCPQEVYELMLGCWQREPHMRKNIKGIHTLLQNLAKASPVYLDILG
Ribosomal protein S6 kinase beta-1 (Homo sapiens), sequence (P23443 whole entry, looked up): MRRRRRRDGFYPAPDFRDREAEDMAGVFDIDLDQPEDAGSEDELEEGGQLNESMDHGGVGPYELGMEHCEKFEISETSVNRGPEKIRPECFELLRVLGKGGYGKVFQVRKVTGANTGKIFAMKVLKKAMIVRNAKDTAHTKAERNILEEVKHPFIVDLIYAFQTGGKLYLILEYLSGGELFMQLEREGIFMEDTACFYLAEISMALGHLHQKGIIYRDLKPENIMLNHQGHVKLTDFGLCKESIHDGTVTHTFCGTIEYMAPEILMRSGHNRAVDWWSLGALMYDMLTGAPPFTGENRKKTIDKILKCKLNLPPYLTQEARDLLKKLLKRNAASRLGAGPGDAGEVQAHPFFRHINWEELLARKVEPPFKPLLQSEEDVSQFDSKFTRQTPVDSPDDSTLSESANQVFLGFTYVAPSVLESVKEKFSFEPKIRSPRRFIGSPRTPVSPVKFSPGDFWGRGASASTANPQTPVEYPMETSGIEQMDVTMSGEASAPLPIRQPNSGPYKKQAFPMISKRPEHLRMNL

CC(=O)N1CCC(c2ccc(C(=O)NC3=NCCN3)cc2C(F)(F)F)CC1 [BI 0054]
inactive: residual activity [1] 100% | residual activity [2] 100% | residual activity [3] 100% | residual activity [4] 52% | inhibition [5] -0.82% | residual activity [6] 100% | inhibition [7] 17% | residual activity [8] 100% | residual activity [9] 76% | residual activity [10] 100% | residual activity [11] 100% | residual activity [12] 100% | residual activity [13] 100% | residual activity [14] 87% | residual activity [15] 100% | inhibition [16] 50% | residual activity [17] 93% | residual activity [18] 98% | residual activity [19] 93% | residual activity [20] 90% | residual activity [21] 100% | residual activity [22] 94% | residual activity [23] 78% | residual activity [24] 100% | inhibition [25] -5.64% | residual activity [26] 88% | residual activity [27] 100% | residual activity [28] 100% | residual activity [29] 100% | residual activity [30] 95%

CC(=O)N1CCC(c2ccc(C(=O)NC(=N)N)cc2C(F)(F)F)CC1 [BI 9627]
inactive: residual activity [1] 100% | residual activity [2] 100% | residual activity [3] 100% | residual activity [4] 73% | inhibition [5] -5.35% | residual activity [6] 93% | inhibition [7] 14.6% | residual activity [8] 100% | residual activity [9] 92% | residual activity [10] 100% | residual activity [11] 100% | residual activity [12] 100% | residual activity [13] 96% | residual activity [14] 100% | residual activity [15] 100% | inhibition [16] 50% | residual activity [17] 100% | residual activity [18] 91% | residual activity [19] 92% | residual activity [20] 90% | residual activity [21] 100% | residual activity [22] 97% | residual activity [23] 100% | residual activity [24] 100% | inhibition [25] -5.7% | residual activity [26] 100% | residual activity [27] 100% | residual activity [28] 100% | residual activity [29] 100% | residual activity [30] 100%
